# From publication PMC7044277 (Nature Communications, 2020)
# Several values for one entry are separate records, joined by “and”; a condition that tells them apart may be missing. Equal values may be shown once.
# Assays:
# [1] = biological target: DRD2 (D2 long receptor) wild-type (Homo sapiens, UniProt P14416); assay: Radioligand competition binding, [3H]-N-methylspiperone, HEK293T membranes; set-up: Fig_1a competition binding curve, source data: unit not given here; conditions: Log [L-741626]
# Sequence of DRD2 (D2 long receptor) wild-type (P14416 whole entry): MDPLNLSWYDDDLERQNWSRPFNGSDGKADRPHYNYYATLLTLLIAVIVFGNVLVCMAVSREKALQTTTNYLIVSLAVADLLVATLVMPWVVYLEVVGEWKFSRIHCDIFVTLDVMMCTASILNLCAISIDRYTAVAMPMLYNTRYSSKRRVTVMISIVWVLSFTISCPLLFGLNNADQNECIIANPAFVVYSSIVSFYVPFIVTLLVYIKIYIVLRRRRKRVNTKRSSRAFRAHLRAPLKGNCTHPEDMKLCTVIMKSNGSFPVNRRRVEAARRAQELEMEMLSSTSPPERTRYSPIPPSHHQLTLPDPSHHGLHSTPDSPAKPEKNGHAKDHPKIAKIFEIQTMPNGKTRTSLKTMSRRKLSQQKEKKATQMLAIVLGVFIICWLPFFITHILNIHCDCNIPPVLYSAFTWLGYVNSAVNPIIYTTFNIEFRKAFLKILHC
# DRD3 wild-type = DRD3 wild-type (Homo sapiens, UniProt P35462); assay: Radioligand competition binding, [3H]-N-methylspiperone; set-up: Fig_1a competition binding curve, source data: unit not given here; conditions: for Fig_1a competition binding curve, source data: Log [L-741626]
# Sequence of DRD3 wild-type (P35462 whole entry): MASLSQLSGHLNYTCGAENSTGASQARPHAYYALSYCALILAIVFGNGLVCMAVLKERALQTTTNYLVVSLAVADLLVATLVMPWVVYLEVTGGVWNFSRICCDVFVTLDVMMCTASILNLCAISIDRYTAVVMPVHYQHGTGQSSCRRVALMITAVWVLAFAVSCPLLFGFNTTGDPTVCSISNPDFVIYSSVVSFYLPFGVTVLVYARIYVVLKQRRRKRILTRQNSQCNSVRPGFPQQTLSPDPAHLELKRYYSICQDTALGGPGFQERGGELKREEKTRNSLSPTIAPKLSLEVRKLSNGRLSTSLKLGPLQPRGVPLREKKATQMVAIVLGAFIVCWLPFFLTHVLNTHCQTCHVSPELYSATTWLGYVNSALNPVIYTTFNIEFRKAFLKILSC
# [2] = biological target: T1, DRD4 (D4.4 variant) wild-type (Homo sapiens, UniProt P21917); assay: as above; conditions: for Fig_1a competition binding curve, source data: Log [L-741626]
# T1 sequence (P21917 1-419): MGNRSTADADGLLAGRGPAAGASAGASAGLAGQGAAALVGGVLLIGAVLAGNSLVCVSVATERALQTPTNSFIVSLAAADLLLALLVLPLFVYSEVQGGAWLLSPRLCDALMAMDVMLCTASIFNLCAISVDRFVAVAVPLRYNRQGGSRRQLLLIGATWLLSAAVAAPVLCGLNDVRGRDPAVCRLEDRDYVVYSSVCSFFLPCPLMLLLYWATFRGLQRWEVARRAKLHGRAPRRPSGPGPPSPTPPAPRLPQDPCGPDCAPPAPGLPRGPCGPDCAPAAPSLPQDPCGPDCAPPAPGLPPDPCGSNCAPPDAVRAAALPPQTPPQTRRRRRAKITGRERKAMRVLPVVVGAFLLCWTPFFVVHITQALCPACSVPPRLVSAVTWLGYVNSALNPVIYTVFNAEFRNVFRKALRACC
# DRD2 L942.64A = biological target: T2, DRD2 L942.64A (Homo sapiens, UniProt P14416, L94A); assay type: binding; conditions: DRD2 L942.64A vs DRD2 wild-type
# T2 construct: expressed in transfected cells; host or cells: HEK293T (ATCC CRL-11268)
# T2 sequence (P14416 whole entry L94A): as the sequence (P14416 whole entry) above, with L94A counted along it
# DRD2 W100EL1A = biological target: T3, DRD2 W100EL1A (Homo sapiens, UniProt P14416, W100A); assay type: binding; conditions: DRD2 W100EL1A vs wild-type
# T3 construct: expressed in transfected cells; host or cells: HEK293T (ATCC CRL-11268)
# T3 sequence (P14416 whole entry W100A): as the sequence (P14416 whole entry) above, with W100A counted along it
# DRD2 W100ECL1F = biological target: T4, DRD2 W100ECL1F (Homo sapiens, UniProt P14416, W100F); assay type: binding; conditions: DRD2 W100ECL1F vs wild-type
# T4 construct: expressed in transfected cells; host or cells: HEK293T (ATCC CRL-11268)
# T4 sequence (P14416 whole entry W100F): as the sequence (P14416 whole entry) above, with W100F counted along it
# DRD2 V1113.29A = biological target: T5, DRD2 V1113.29A (Homo sapiens, UniProt P14416, V111A); assay type: binding; conditions: DRD2 V1113.29A vs wild-type
# T5 construct: expressed in transfected cells; host or cells: HEK293T (ATCC CRL-11268)
# T5 sequence (P14416 whole entry V111A): as the sequence (P14416 whole entry) above, with V111A counted along it
# DRD2 Y4087.35A = biological target: T6, DRD2 Y4087.35A (Homo sapiens, UniProt P14416, Y408A); assay type: binding; conditions: DRD2 Y4087.35A vs wild-type
# T6 construct: expressed in transfected cells; host or cells: HEK293T (ATCC CRL-11268)
# T6 sequence (P14416 whole entry Y408A): as the sequence (P14416 whole entry) above, with Y408A counted along it
# DRD2 F1103.28W = biological target: T7, DRD2 F1103.28W (Homo sapiens, UniProt P14416, F110W); assay type: binding
# T7 construct: expressed in transfected cells; host or cells: HEK293T (ATCC CRL-11268)
# T7 sequence (P14416 whole entry F110W): as the sequence (P14416 whole entry) above, with F110W counted along it
# DRD2 F1103.28Y = biological target: T8, DRD2 F1103.28Y (Homo sapiens, UniProt P14416, F110Y); assay type: binding
# T8 construct: expressed in transfected cells; host or cells: HEK293T (ATCC CRL-11268)
# T8 sequence (P14416 whole entry F110Y): as the sequence (P14416 whole entry) above, with F110Y counted along it
# DRD2 F1103.28L = biological target: T9, DRD2 F1103.28L (Homo sapiens, UniProt P14416, F110L); assay type: binding
# T9 construct: expressed in transfected cells; host or cells: HEK293T (ATCC CRL-11268)
# T9 sequence (P14416 whole entry F110L): as the sequence (P14416 whole entry) above, with F110L counted along it
# DRD2 F1103.28C = biological target: T10, DRD2 F1103.28C (Homo sapiens, UniProt P14416, F110C); assay type: binding; conditions: DRD2 F1103.28C vs wild-type
# T10 construct: expressed in transfected cells; host or cells: HEK293T (ATCC CRL-11268)
# T10 sequence (P14416 whole entry F110C): as the sequence (P14416 whole entry) above, with F110C counted along it
# DRD2 F1103.28E = biological target: T11, DRD2 F1103.28E (Homo sapiens, UniProt P14416, F110E); assay type: binding; conditions: DRD2 F1103.28E vs wild-type
# T11 construct: expressed in transfected cells; host or cells: HEK293T (ATCC CRL-11268)
# T11 sequence (P14416 whole entry F110E): as the sequence (P14416 whole entry) above, with F110E counted along it
# DRD3 F1063.28A = DRD3 F1063.28A (Homo sapiens, UniProt P35462, F106A); assay: biochemical; assay type: binding
# Sequence of DRD3 F1063.28A (P35462 whole entry F106A): as the sequence (P35462 whole entry) above, with F106A counted along it
# DRD2 F1103.28A = DRD2 F1103.28A (Homo sapiens, UniProt P14416, F110A); assay type: binding; set-up: expressed in transfected cells; host or cells: HEK293T (ATCC CRL-11268)
# Sequence of DRD2 F1103.28A (P14416 whole entry F110A): as the sequence (P14416 whole entry) above, with F110A counted along it
smiles,measurement,setting,value
OC1(c2ccc(Cl)cc2)CCN(Cc2c[nH]c3ccccc23)CC1 [L-741626],"Fig_1a competition binding curve, source data","[1]; M -4, replicates",-1.355 and 1.993 and -0.6377 and -1.594 and 3.428 and -1.8334
same,"Fig_1a competition binding curve, source data",[1]; M -7,29.733 and 32.3635 and 33.0809 and 32.8418 and 34.0375 and 33.3201
same,"Fig_1a competition binding curve, source data",[1]; M -8,78.2782 and 80.4304 and 73.2563 and 83.061 and 72.778 and 84.4958
same,"Fig_1a competition binding curve, source data",[1]; M -8.5,93.8222 and 94.0614 and 107.453 and 92.6265 and 93.1048
same,"Fig_1a competition binding curve, source data",[1]; M -9,100.279 and 96.4528 and 102.67 and 87.1264 and 100.04 and 104.584
same,"Fig_1a competition binding curve, source data",[1]; M -9.5,97.4093 and 108.171 and 98.605 and 95.0179 and 103.388
same,"Fig_1a competition binding curve, source data",[1]; M -10,91.5385 and 88.2344 and 89.4739
same,"Fig_1a competition binding curve, source data",[1]; M -11,89.0395 and 93.1048 and 90.4743 and 90.2352 and 86.4089 and 84.7349
same,"Fig_1a competition binding curve, source data",[1]; M -12,100.518 and 86.6481 and 95.4962 and 94.7788 and 98.1268 and 94.5397
same,"Fig_1a competition binding curve, source data",[1]; M -13,93.8222 and 89.2786 and 87.6046 and 85.6915 and 92.3874 and 93.1048
same,Ki,DRD3 wild-type,186 nM
same,"Fig_1a competition binding curve, source data",DRD3 wild-type; M -6,32.8337 and 26.7408 and 38.6364 and 33.7041 and 31.0928
same,"Fig_1a competition binding curve, source data",DRD3 wild-type; M -7,71.7118 and 82.4468 and 88.2495 and 78.675 and 74.323 and 84.4778
same,"Fig_1a competition binding curve, source data",DRD3 wild-type; M -8.5,107.108 and 98.6944 and 100.725 and 87.3791 and 104.497 and 101.596
same,"Fig_1a competition binding curve, source data",DRD3 wild-type; M -9,98.4043 and 97.5338 and 93.7621 and 84.7679 and 88.8298 and 89.7002
same,"Fig_1a competition binding curve, source data",DRD3 wild-type; M -9.5,87.3791 and 78.3849 and 90.2805 and 81.5764 and 85.058 and 98.1141
same,"Fig_1a competition binding curve, source data",DRD3 wild-type; M -10,76.9342 and 89.7002 and 81.8665 and 72.2921 and 84.1876 and 72.0019
same,"Fig_1a competition binding curve, source data",DRD3 wild-type; M -11,74.6132 and 85.6383 and 84.7679 and 77.8046 and 89.7002 and 91.441
same,"Fig_1a competition binding curve, source data",DRD3 wild-type; M -12,84.7679 and 85.9284 and 102.466 and 78.0948 and 88.2495
same,"Fig_1a competition binding curve, source data",DRD3 wild-type; M -13,63.0077 and 75.4836 and 75.1934 and 78.675 and 77.5145 and 81.2863
same,Ki,[2],170 nM
same,"Fig_1a competition binding curve, source data",[2]; M -7,75.0526 and 67.9047 and 62.8591 and 59.9159 and 75.8935
same,"Fig_1a competition binding curve, source data",[2]; M -8,91.8711 and 84.3027 and 93.5529 and 96.4962
same,"Fig_1a competition binding curve, source data",[2]; M -8.5,103.224 and 99.4394 and 102.803 and 91.8711
same,"Fig_1a competition binding curve, source data",[2]; M -9,79.2572 and 91.8711 and 89.7687 and 85.9846 and 96.9166 and 113.735
same,"Fig_1a competition binding curve, source data",[2]; M -9.5,89.7687 and 87.246 and 104.905 and 87.6664 and 93.1325 and 88.9278
same,"Fig_1a competition binding curve, source data",[2]; M -10,74.6321 and 83.0413 and 75.8935 and 70.4275 and 85.5641 and 84.3027
same,"Fig_1a competition binding curve, source data",[2]; M -11,92.712 and 78.8367 and 85.1437 and 96.4962 and 77.9958 and 82.6209
same,"Fig_1a competition binding curve, source data",[2]; M -12,77.1549 and 85.1437 and 89.7687 and 83.4618 and 81.3595
same,"Fig_1a competition binding curve, source data",[2]; M -13,88.0869 and 85.5641 and 82.6209 and 79.6776 and 79.2572
same,ΔpKi (mutant-WT),DRD2 L942.64A,-0.45
same,ΔpKi (mutant-WT),DRD2 W100EL1A,-0.79
same,ΔpKi (mutant-WT),DRD2 W100ECL1F,-0.85
same,ΔpKi (mutant-WT),DRD2 V1113.29A,-0.26
same,ΔpKi (mutant-WT),DRD2 Y4087.35A,-0.10
same,ΔpKi (mutant-WT),DRD2 F1103.28W; DRD2 F1103.28W vs wild-type,-0.93
same,"binding reduced, mutant vs wild type",DRD2 F1103.28W; DRD2 Phe110^3.28Trp vs wild-type DRD2,8.51 fold
same,ΔpKi (mutant-WT),DRD2 F1103.28Y; DRD2 F1103.28Y vs wild-type,-1.76
same,"binding reduced, mutant vs wild type",DRD2 F1103.28Y; DRD2 Phe110^3.28Tyr vs wild-type DRD2,57.54 fold
same,ΔpKi (mutant-WT),DRD2 F1103.28L; DRD2 F1103.28L vs wild-type,1.27
same,"binding enhanced, mutant vs wild type",DRD2 F1103.28L; DRD2 Phe110^3.28Leu vs wild-type DRD2,18.65 fold
same,ΔpKi (mutant-WT),DRD2 F1103.28C,0.61
same,ΔpKi (mutant-WT),DRD2 F1103.28E,0.03
same,Ki,DRD3 F1063.28A,5.37 nM
same,ΔpKi (mutant-WT),DRD3 F1063.28A; DRD3 F1063.28A vs DRD3 wild-type,1.54
same,"binding affinity increased, mutant vs wild type",DRD3 F1063.28A; DRD3 Phe106^3.28Ala vs wild-type DRD3,34.67 fold
same,ΔpKi (mutant-WT),DRD2 F1103.28A; DRD2 F1103.28A vs wild-type,2.14
same,"affinity increase (binding enhanced), mutant vs wild type",DRD2 F1103.28A; DRD2 Phe110^3.28Ala vs wild-type DRD2,144.18 fold
